Test results as given in PubChem BioAssay (NCI).
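Results reflect a 48-hour exposure of cells in 96-well plates to compound at five concentrations. TGI denotes the concentration required for complete inhibition of growth.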

Key:
Assay in all cases: NCI tumour cell line growth inhibition, 48 h
[1] = system: 786-0 renal
[2] = system: A549 NSCLC
[3] = system: ACHN renal
[4] = system: COLO 205 colon
[5] = system: DMS 114 small cell lung
[6] = system: DMS 273 small cell lung
[7] = system: EKVX NSCLC
[8] = system: HCC-2998 colon
[9] = system: HCT-116 colon
[10] = system: HCT-15 colon
[11] = system: HT29 colon
[12] = system: IGROV1 ovarian
[13] = system: K-562 leukemia
[14] = system: KM12 colon
[15] = system: KM20L2 colon
[16] = system: LXFL 529 NSCLC
[17] = system: M19-MEL melanoma
[18] = system: MALME-3M melanoma
[19] = system: MOLT-4 leukemia
[20] = system: NCI-H226 lung
[21] = system: NCI-H23 lung
[22] = system: OVCAR-5 ovarian
[23] = system: OVCAR-8 ovarian
[24] = system: RPMI-8226 leukemia
[25] = system: RXF 393 renal
[26] = system: SF-268 CNS
[27] = system: SF-295 CNS
[28] = system: SF-539 CNS
[29] = system: SK-MEL-2 melanoma
[30] = system: SK-MEL-28 melanoma
[31] = system: SK-MEL-5 melanoma
[32] = system: SK-OV-3 ovarian
[33] = system: SN12C renal
[34] = system: SNB-19 CNS
[35] = system: SNB-75 CNS
[36] = system: SNB-78 CNS
[37] = system: SR leukemia
[38] = system: SW-620 colon
[39] = system: TK-10 renal
[40] = system: U251 CNS
[41] = system: UACC-257 melanoma
[42] = system: UACC-62 melanoma
[43] = system: UO-31 renal
[44] = system: A498 renal
[45] = system: CCRF-CEM leukemia
[46] = system: DLD-1 colon
[47] = system: HL-60(TB) leukemia
[48] = system: HOP-92 NSCLC
[49] = system: LOX IMVI melanoma
[50] = system: M14 melanoma
[51] = system: NCI-H460 lung
[52] = system: NCI-H522 lung
[53] = system: OVCAR-3 ovarian
[54] = system: OVCAR-4 ovarian
[55] = system: CAKI-1 renal
[56] = system: HOP-62 NSCLC

Cn1c(=O)c2ccccc2c2nc3ccccc3nc21
TGI [1]: > 100 µM
TGI [2]: > 100 µM
TGI [3]: > 100 µM
TGI [4]: > 100 µM
TGI [5]: > 100 µM
TGI [6]: > 100 µM
TGI [7]: > 100 µM
TGI [8]: > 100 µM
TGI [9]: > 100 µM
TGI [10]: > 100 µM
TGI [11]: > 100 µM
TGI [12]: > 100 µM
TGI [13]: > 100 µM
TGI [14]: > 100 µM
TGI [15]: > 100 µM
TGI [16]: > 100 µM
TGI [17]: > 100 µM
TGI [18]: > 100 µM
TGI [19]: > 100 µM
TGI [20]: > 100 µM
TGI [21]: > 100 µM
TGI [22]: > 100 µM
TGI [23]: > 100 µM
TGI [24]: > 100 µM
TGI [25]: > 100 µM
TGI [26]: > 100 µM
TGI [27]: > 100 µM
TGI [28]: > 100 µM
TGI [29]: > 100 µM
TGI [30]: > 100 µM
TGI [31]: > 100 µM
TGI [32]: > 100 µM
TGI [33]: > 100 µM
TGI [34]: > 100 µM
TGI [35]: 58.9 µM
TGI [36]: > 100 µM
TGI [37]: > 100 µM
TGI [38]: > 100 µM
TGI [39]: > 100 µM
TGI [40]: > 100 µM
TGI [41]: > 100 µM
TGI [42]: > 100 µM
TGI [43]: > 100 µM

O=c1[nH]c(=O)n(C2OC(CO)C(N(O)Cc3ccc(F)cc3)C2O)cc1Br (configuration not stated)
TGI [1]: > 100 µM
TGI [44]: > 100 µM
TGI [2]: > 100 µM
TGI [3]: > 100 µM
TGI [45]: > 100 µM
TGI [4]: > 100 µM
TGI [46]: > 100 µM
TGI [5]: > 100 µM
TGI [6]: > 100 µM
TGI [7]: > 100 µM
TGI [8]: > 100 µM
TGI [9]: > 100 µM
TGI [47]: > 100 µM
TGI [48]: > 100 µM
TGI [11]: > 100 µM
TGI [12]: > 100 µM
TGI [13]: > 100 µM
TGI [14]: > 100 µM
TGI [15]: > 100 µM
TGI [49]: > 100 µM
TGI [16]: > 100 µM
TGI [50]: > 100 µM
TGI [17]: > 100 µM
TGI [19]: > 100 µM
TGI [21]: > 100 µM
TGI [51]: > 100 µM
TGI [52]: > 100 µM
TGI [53]: > 100 µM
TGI [54]: > 100 µM
TGI [22]: > 100 µM
TGI [23]: > 100 µM
TGI [24]: > 100 µM
TGI [25]: > 100 µM
TGI [26]: > 100 µM
TGI [27]: > 100 µM
TGI [28]: > 100 µM
TGI [30]: > 100 µM
TGI [31]: > 100 µM
TGI [32]: > 100 µM
TGI [33]: > 100 µM
TGI [34]: > 100 µM
TGI [35]: > 100 µM
TGI [36]: > 100 µM
TGI [37]: > 100 µM
TGI [38]: > 100 µM
TGI [39]: > 100 µM
TGI [40]: > 100 µM
TGI [41]: > 100 µM
TGI [42]: > 100 µM
TGI [43]: > 100 µM

O=C1NC(=O)C(C(=O)C(=O)Nc2cccc(C(F)(F)F)c2)C(=O)N1
TGI [1]: > 100 µM
TGI [44]: > 100 µM
TGI [2]: > 100 µM
TGI [3]: > 100 µM
TGI [55]: > 100 µM
TGI [45]: > 100 µM
TGI [4]: > 100 µM
TGI [46]: > 100 µM
TGI [5]: > 100 µM
TGI [7]: > 100 µM
TGI [8]: > 100 µM
TGI [9]: > 100 µM
TGI [10]: > 100 µM
TGI [47]: > 100 µM
TGI [56]: > 100 µM
TGI [12]: > 100 µM
TGI [13]: > 100 µM
TGI [14]: > 100 µM
TGI [15]: > 100 µM
TGI [49]: > 100 µM
TGI [16]: > 100 µM
TGI [50]: > 100 µM
TGI [17]: > 100 µM
TGI [18]: > 100 µM
TGI [19]: > 100 µM
TGI [21]: > 100 µM
TGI [51]: > 100 µM
TGI [52]: > 100 µM
TGI [53]: > 100 µM
TGI [54]: > 100 µM
TGI [22]: > 100 µM
TGI [23]: > 100 µM
TGI [24]: > 100 µM
TGI [25]: > 100 µM
TGI [26]: > 100 µM
TGI [28]: > 100 µM
TGI [29]: > 100 µM
TGI [30]: > 100 µM
TGI [31]: > 100 µM
TGI [32]: > 100 µM
TGI [34]: > 100 µM
TGI [35]: > 100 µM
TGI [36]: > 100 µM
TGI [38]: > 100 µM
TGI [39]: > 100 µM
TGI [40]: > 100 µM
TGI [41]: > 100 µM
TGI [42]: > 100 µM
TGI [43]: > 100 µM
